Consider five compounds from patent US7317025B2, “Non-peptidic NPY Y2 receptor inhibitors” (Johnson & Johnson Pharmaceutical Research & Development, LLC, priority 2003, dated 2008).

Usually IC50 stands for the concentration that inhibits the measured activity by half. Read a high IC50 as weaker potency.

The assay has as its target T1, Y2 receptors (Homo sapiens, UniProt P49146).
T1 construct: KAN-Ts endogenously expressing Y2 receptors; endogenous in cells; host or cells: KAN-Ts cells (membrane preparation)
T1 sequence (P49146 1-381): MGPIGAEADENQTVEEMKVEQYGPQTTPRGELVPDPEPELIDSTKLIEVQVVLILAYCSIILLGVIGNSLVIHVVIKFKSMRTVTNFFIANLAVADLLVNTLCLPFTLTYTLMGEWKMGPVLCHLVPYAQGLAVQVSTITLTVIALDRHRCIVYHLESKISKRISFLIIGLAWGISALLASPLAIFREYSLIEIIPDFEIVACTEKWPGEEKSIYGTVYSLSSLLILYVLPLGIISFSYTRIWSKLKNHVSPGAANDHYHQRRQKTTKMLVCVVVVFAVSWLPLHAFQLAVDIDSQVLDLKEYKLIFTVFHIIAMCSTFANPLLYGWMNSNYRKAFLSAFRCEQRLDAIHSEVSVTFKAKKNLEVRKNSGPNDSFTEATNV
Nature of the assay: Radioligand binding assay, [125I]PYY, KAN-Ts membranes. How it is done:
Radioligand Binding Assay
KAN-Ts endogenously expressing Y2 receptors were used for the radioligand binding assay. Cells were grown to confluence on 150 cm^2 tissue culture plates, washed with phosphate-buffered saline (PBS), and scraped into 50 mL tubes. After centrifugation, the supernatant was aspirated, and the pellets frozen and stored at −80° C. Thawed pellets were homogenized with a polytron tissue grinder for 15 sec in 20 mM Tris-HCl, 5 mM EDTA. The homogenate was centrifuged at 800×g for 5 min and the collected supernatant was recentrifuged at 25000×g for 25 min. The resulting pellet was resuspended in binding buffer (20 mM HEPES, 120 mM NaCl, 0.22 mM KH2PO4, 1.3 mM CaCl2, 0.8 mM MgSO4). Membranes were incubated with [^125I]PYY (80 pM) in the presence or absence of test compound for 1 h at rt. The reaction was stopped by filtration through GF/C filter plates pre-soaked in 0.3% polyethylenimine and subsequently washed with Tris 50 mM, 5 mM EDTA buffer. Plates were dried for 1 h in a 55° C. oven, scintillation fluid was added and the radioactivity was counted in a Packard TopCount. Specific binding to the NPY receptor subtypes was determined by radioactivity that was bound in the presence of […] NPY. Each binding experiment was repeated three to eight times, each in duplicate. IC50 values (i.e. concentration of unlabelled peptide or antagonist required to compete for 50% of specific binding to the radioligand) were calculated using the GraphPad Prism software (GraphPad Software Inc., San Diego Calif.) with a fit to a sigmoidal dose response curve. Data were expressed as pIC50 values where pIC50=−log IC50.

The mark [1] stands for this setting: membranes of KAN-Ts cells endogenously expressing Y2 receptors, [125I]PYY (80 pM), 1 h at rt.

Read-outs that look alike come from different tables or passages of the source.

`CC(=O)N1CCc2ccc(N(C(=O)/C=C/c3ccccc3)C3CCN(C(=O)c4ccccc4)CC3)cc21` [Example 39, trans-N-(1-Acetyl-2,3-dihydro-1H-indol-6-yl)-N-(1-benzoyl-piperidin-4-yl)-3-phenyl-acrylamide] gave an IC50 of 29 µM. Under setting [1], `CC(=O)N1CCc2ccc(N(C(=O)/C=C/c3ccccc3)C3CCCN(Cc4ccccc4)C3)cc21` (stereo not drawn) [Example 45, trans-N-(1-Acetyl-2,3-dihydro-1H-indol-6-yl)-N-(1-benzyl-piperidin-3-yl)-3-phenyl-acrylamide] gave an IC50 of 16 µM.

Compound `CC(=O)N1CCc2ccc(N(C(=O)/C=C/c3ccccc3)C3CCN(Cc4ccccc4)C3)cc21` (stereo not drawn) [Example 46, trans-N-(1-Acetyl-2,3-dihydro-1H-indol-6-yl)-N-(1-benzyl-pyrrolidin-3-yl)-3-phenyl-acrylamide] showed an IC50 under setting [1] of 18 µM. In turn, `CC(=O)N1CCc2ccc(N(CCCNCc3ccccc3)C(=O)/C=C/c3ccccc3)cc21` [Example 47, trans-N-(1-Acetyl-2,3-dihydro-1H-indol-6-yl)-N-(3-benzylamino-propyl)-3-phenyl-acrylamide] returned an IC50 under setting [1] of 12 µM. For the compound `C=CCN(CCCN(C(=O)/C=C/c1ccccc1)c1ccc2c(c1)N(C(C)=O)CC2)Cc1ccccc1` [Example 48, trans-N-(1-Acetyl-2,3-dihydro-1H-indol-6-yl)-N-[3-(allyl-benzyl-amino)-propyl]-3-phenyl-acrylamide], the IC50 under setting [1] amounted to 12 µM.
